From publication PMC7915026, “Sulfaguanidine Hybrid with Some New Pyridine-2-One Derivatives: Design, Synthesis, and Antimicrobial Activity against Multidrug-Resistant Bacteria as Dual DNA Gyrase and DHFR Inhibitors” (Antibiotics, 2021)
In brackets after ≈: the same amount, converted by molar mass. Read-outs that look alike come from different tables or passages of the source.

Key:
[1] = test system: Salmonella typhi (S. typhi ATCC 6539); assay: microbe, parasite or virus in culture; type: cell-based; conditions: Salmonella enterica
E. coli ATCC 25922 [2] = assay: MIC and MBC determination; type: cell-based
[3] = test system: Gram-positive and Gram-negative bacteria; type: cell-based
S. aureus ATCC 29213 [4] = assay: MIC and MBC determination; type: cell-based
E. faecalis ATCC 29212 [5] = assay: Inhibition zone, paper disk/agar diffusion; type: cell-based
Outline: (§1)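 Values are inhibition zone diameters in millimetres. These were measured after applying the derivatives to agar plates by diffusion, and norfloxacin served as the reference drug.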

S. typhi ATCC 6539 = assay: Inhibition zone, paper disk/agar diffusion; type: cell-based
Outline: as §1

B. subtilis ATCC 6633 [6] = assay: Inhibition zone, paper disk/agar diffusion; type: cell-based
Outline: as §1

S. aureus ATCC 29213 [7] = assay: Inhibition zone, paper disk/agar diffusion; type: cell-based
Outline: as §1

E. coli ATCC 25922 [8] = assay: Inhibition zone, paper disk/agar diffusion; type: cell-based
Outline: as §1

P. aeruginosa ATCC 27853 [9] = assay: Inhibition zone, paper disk/agar diffusion; type: cell-based
Outline: as §1

B. subtilis ATCC 6633 [10] = assay: MIC and MBC determination; type: cell-based
P. aeruginosa ATCC 27853 [11] = assay: MIC and MBC determination; type: cell-based; conditions: Pseudomonas aeruginosa, ATCC27853
E. faecalis ATCC 29212 [12] = assay: MIC and MBC determination; type: cell-based
S. aureus DNA gyrase = S. aureus DNA gyrase (Staphylococcus aureus, UniProt P0A0K8+P20831); assay: In vitro DNA gyrase supercoiling enzymatic assay; type: biochemical
Chain of S. aureus DNA gyrase (P20831 whole entry): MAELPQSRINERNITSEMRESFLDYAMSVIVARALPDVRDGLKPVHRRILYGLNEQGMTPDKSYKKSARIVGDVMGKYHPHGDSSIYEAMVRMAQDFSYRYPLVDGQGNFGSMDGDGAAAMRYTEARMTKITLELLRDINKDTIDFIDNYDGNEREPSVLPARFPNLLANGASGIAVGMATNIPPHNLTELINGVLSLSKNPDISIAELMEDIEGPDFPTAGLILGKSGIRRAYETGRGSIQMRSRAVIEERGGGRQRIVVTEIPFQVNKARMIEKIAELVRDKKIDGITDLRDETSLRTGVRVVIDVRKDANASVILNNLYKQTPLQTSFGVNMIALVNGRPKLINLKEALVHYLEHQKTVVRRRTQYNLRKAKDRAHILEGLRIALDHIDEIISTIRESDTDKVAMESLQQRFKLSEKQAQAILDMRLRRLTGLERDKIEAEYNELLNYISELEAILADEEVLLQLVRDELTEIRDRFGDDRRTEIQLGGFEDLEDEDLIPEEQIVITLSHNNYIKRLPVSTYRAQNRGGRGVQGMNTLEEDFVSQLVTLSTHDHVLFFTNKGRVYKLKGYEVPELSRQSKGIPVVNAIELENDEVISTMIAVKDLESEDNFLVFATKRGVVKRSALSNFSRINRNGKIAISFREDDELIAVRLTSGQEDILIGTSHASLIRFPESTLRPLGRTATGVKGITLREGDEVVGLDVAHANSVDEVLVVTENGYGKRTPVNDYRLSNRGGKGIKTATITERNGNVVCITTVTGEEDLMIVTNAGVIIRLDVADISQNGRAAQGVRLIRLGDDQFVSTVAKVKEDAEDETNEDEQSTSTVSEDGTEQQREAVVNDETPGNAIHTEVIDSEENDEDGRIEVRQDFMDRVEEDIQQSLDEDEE
Chain of S. aureus DNA gyrase (P0A0K8 whole entry): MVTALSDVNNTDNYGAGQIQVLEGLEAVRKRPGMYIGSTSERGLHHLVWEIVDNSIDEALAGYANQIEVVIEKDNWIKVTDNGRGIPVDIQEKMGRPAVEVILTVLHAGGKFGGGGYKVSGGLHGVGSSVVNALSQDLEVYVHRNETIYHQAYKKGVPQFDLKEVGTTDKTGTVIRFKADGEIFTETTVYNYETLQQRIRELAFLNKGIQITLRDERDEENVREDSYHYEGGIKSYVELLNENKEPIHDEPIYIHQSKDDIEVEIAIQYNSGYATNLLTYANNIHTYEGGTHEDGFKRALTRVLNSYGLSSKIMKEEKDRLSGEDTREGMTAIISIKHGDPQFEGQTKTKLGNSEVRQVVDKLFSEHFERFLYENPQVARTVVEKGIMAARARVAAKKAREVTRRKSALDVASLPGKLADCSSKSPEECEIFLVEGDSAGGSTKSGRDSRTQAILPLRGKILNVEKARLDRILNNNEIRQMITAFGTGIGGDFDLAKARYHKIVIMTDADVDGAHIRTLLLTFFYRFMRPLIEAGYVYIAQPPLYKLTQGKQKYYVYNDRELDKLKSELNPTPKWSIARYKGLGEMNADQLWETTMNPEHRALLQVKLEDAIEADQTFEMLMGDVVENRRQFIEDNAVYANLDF

MDRB strains = assay: MIC and MBC, ranges over the MDRB panel; type: cell-based; conditions: four MDRB strains
From the text: (§2) Norfloxacin was used as a positive control for the multidrug resistance study.
(§3) The experiment was repeating for three-times.

[13] = test system: F. oxysporum (RCMB 008002); assay: MIC and MFC determination; type: cell-based
C. albicans (ATCC 10231) [14] = assay: Inhibition zone, paper disk/agar diffusion; type: cell-based; conditions: Na = no activity
Outline: as §1

[15] = test system: F. oxysporum (RCMB 008002); assay: Inhibition zone, paper disk/agar diffusion; type: cell-based; conditions: Na = no activity
Outline: as §1

[16] = molecular target: E. coli DHFR (dihydrofolate reductase) (Escherichia coli, UniProt P0ABQ4); assay: In vitro DHFR enzymatic assay; type: biochemical
Chain of E. coli DHFR (dihydrofolate reductase) (P0ABQ4 whole entry): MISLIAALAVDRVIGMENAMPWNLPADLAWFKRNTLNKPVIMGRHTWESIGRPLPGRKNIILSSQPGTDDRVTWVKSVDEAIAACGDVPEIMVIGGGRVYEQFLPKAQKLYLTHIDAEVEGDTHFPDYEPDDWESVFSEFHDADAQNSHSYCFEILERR

[17] = test system: P. aeruginosa ATCC BAA-2111; assay: Inhibition zone against multidrug-resistant bacteria; type: cell-based; conditions: MDRB P. aeruginosa ATCC BAA-2111
From the text: as §2
(§4) The antimicrobial activity performed at the bacteriology laboratory, Botany and Microbiology Department, Faculty of Science, Al-Azhar University, Cairo, Egypt. The inhibition zone (IZ) of the tested derivatives expressed as the diameter (mm) according to the agar plate diffusion method.

E. coli ATCC BAA-196 [18] = assay: as above; type: cell-based; conditions: MDRB E. coli ATCC BAA-196
From the text: as §2, §4

S. aureus ATCC 33591 [19] = assay: as above; type: cell-based; conditions: MDRB S. aureus ATCC 33591
From the text: as §2, §4

S. aureus ATCC 43300 [20] = assay: as above; type: cell-based; conditions: MDRB S. aureus ATCC 43300
From the text: as §2, §4

C. albicans (ATCC 10231) [21] = assay: MIC and MFC determination; type: cell-based
[22] = test system: P. aeruginosa ATCC BAA-2111; assay: MIC and MBC against multidrug-resistant strains; type: cell-based; conditions: P. aeruginosa ATCC BAA-2111
From the text: as §2, §3

E. coli ATCC BAA-196 [23] = assay: MIC and MBC against multidrug-resistant strains; type: cell-based; conditions: Escherichia coli, ATCCBAA196, E. coli ATCC BAA-196
From the text: as §2, §3

S. aureus ATCC 33591 [24] = assay: MIC and MBC against multidrug-resistant strains; type: cell-based; conditions: Staphylococcus aureus, ATCC33591, S. aureus ATCC 33591
From the text: as §2, §3

S. aureus ATCC 43300 [25] = assay: MIC and MBC against multidrug-resistant strains; type: cell-based; conditions: Staphylococcus aureus, ATCC43300, S. aureus ATCC 43300
From the text: as §2, §3

[26] = Gram-negative: E. coli, P. aeruginosa, S. typhi
[27] = Staphylococcus aureus, ATCC29213
[28] = Enterococcus faecalis, ATCC29212

## CN(C)[C@@H]1C(O)=C(C(N)=O)C(=O)[C@@]2(O)C(O)=C3C(=O)c4c(O)cccc4[C@@](C)(O)[C@H]3C[C@@H]12 [Tetracycline, tetracycline, reference compound]
[1]
  MBC: 98.44 ± 0.87 µM (≈ 43.8 µg/mL)
  MIC: 70.3 ± 1.06 µM (≈ 31.2 µg/mL)
E. coli ATCC 25922 [2]
  MBC: 42.16 ± 0.92 µM (≈ 18.7 µg/mL)
  MIC: 35.14 ± 0.87 µM (≈ 15.6 µg/mL)
E. coli ATCC 25922 [2]; Escherichia coli, ATCC25922
  MBC: 42.2 µM (≈ 18.7 µg/mL)
  MIC: 35.1 µM (≈ 15.6 µg/mL)
[3]; [26]
  MBC range: 42.16 to 196.89 µM
  MIC range: 35.14 to 140.6 µM
[3]; Gram-positive bacteria
  MBC range: 91.40 to 210.9 µM
  MIC range: 70.31 to 140.63 µM
S. aureus ATCC 29213 [4]; [27]
  MBC: 197 ± 3.54 µM (≈ 87.5 µg/mL)
  MIC: 141 ± 3.21 µM (≈ 62.5 µg/mL)
E. faecalis ATCC 29212 [5]
  Mean Diameter of the Inhibition Zone: 22 ± 0.25 mm
S. typhi ATCC 6539
  Mean Diameter of the Inhibition Zone: 21 ± 0.55 mm
B. subtilis ATCC 6633 [6]
  Mean Diameter of the Inhibition Zone: 25 ± 0.22 mm
S. aureus ATCC 29213 [7]
  Mean Diameter of the Inhibition Zone: 25 ± 0.11 mm
E. coli ATCC 25922 [8]
  Mean Diameter of the Inhibition Zone: 23 ± 0.20 mm
P. aeruginosa ATCC 27853 [9]
  Mean Diameter of the Inhibition Zone: 20 ± 0.5 mm
B. subtilis ATCC 6633 [10]
  MBC: 91.40 ± 2.89 µM (≈ 40.6 µg/mL)
  MIC: 70.31 ± 2.65 µM (≈ 31.2 µg/mL)
B. subtilis ATCC 6633 [10]; Bacillus subtilis, ATCC6633
  MBC: 91.4 µM (≈ 40.6 µg/mL)
  MIC: 70.3 µM (≈ 31.2 µg/mL)
P. aeruginosa ATCC 27853 [11]
  MBC: 197 ± 2.36 µM (≈ 87.5 µg/mL)
  MIC: 141 ± 2.85 µM (≈ 62.5 µg/mL)
E. faecalis ATCC 29212 [12]
  MBC: 210.9 ± 1.78 µM (≈ 93.7 µg/mL)
  MIC: 140.6 ± 1.98 µM (≈ 62.5 µg/mL)
E. faecalis ATCC 29212 [12]; [28]
  MBC: 211 µM (≈ 93.7 µg/mL)
  MIC: 141 µM (≈ 62.5 µg/mL)

## N#Cc1c(-c2ccc(Cl)cc2)c(C#N)c(=O)n(-c2ccc(S(=O)(=O)NC(=N)N)cc2)c1N [Compound 3a, 4-(6-Amino-4-(4-chlorophenyl)-3,5-dicyano-2-oxopyridin-1(2H)-yl)-N-carbamimidoylbenzenesulfonamide]
[1]; Salmonella typhi, read-out: MBC
  MBC: 22.6 ± 0.32 µM (≈ 10.6 µg/mL)
[1]; Salmonella typhi, read-out: MIC
  MIC: 11.9 ± 0.62 µM (≈ 5.57 µg/mL)
S. aureus DNA gyrase
  IC50: 22 ± 1.35 µM
S. aureus DNA gyrase; S. aureus DNA gyrase IC50
  fold potency relative to ciprofloxacin: ~1.19 fold
E. coli ATCC 25922 [2]; E. coli
  MBC: 30.02 ± 0.52 µM (≈ 14 µg/mL)
  MIC: 16.69 ± 0.84 µM (≈ 7.81 µg/mL)
E. coli ATCC 25922 [2]; Escherichia coli, ATCC25922, E. coli, read-out: MBC
  MBC: 30 µM (≈ 14 µg/mL)
E. coli ATCC 25922 [2]; Escherichia coli, ATCC25922, E. coli, read-out: MIC
  MIC: 16.7 µM (≈ 7.81 µg/mL)
MDRB strains
  MBC range: 14.23 to 33.38 µM
  MIC range: 8.33 to 16.69 µM
S. aureus ATCC 29213 [4]; S. aureus
  MBC: 33.38 ± 0.65 µM (≈ 15.6 µg/mL)
  MIC: 16.69 ± 0.87 µM (≈ 7.81 µg/mL)
S. aureus ATCC 29213 [4]; Staphylococcus aureus, ATCC29213, S. aureus, read-out: MBC
  MBC: 33.4 µM (≈ 15.6 µg/mL)
S. aureus ATCC 29213 [4]; Staphylococcus aureus, ATCC29213, S. aureus, read-out: MIC
  MIC: 16.7 µM (≈ 7.81 µg/mL)
[13]
  MFC: 56.74 ± 0.98 µM (≈ 26.5 µg/mL)
  MFC/MIC: <2
  MIC: 33.38 ± 0.74 µM (≈ 15.6 µg/mL)
[13]; Fusarium oxysporum, RCMB008002, read-out: MFC
  MFC: 56.7 µM (≈ 26.5 µg/mL)
[13]; Fusarium oxysporum, RCMB008002, read-out: MIC
  MIC: 33.4 µM (≈ 15.6 µg/mL)
E. faecalis ATCC 29212 [5]; E. faecalis, Na = no activity
  Mean Diameter of the Inhibition Zone: 21 ± 0.11 mm
S. typhi ATCC 6539; S. typhi, Na = no activity
  Mean Diameter of the Inhibition Zone: 18 ± 0.16 mm
C. albicans (ATCC 10231) [14]
  Mean Diameter of the Inhibition Zone: 22 ± 0.35 mm
[15]
  Mean Diameter of the Inhibition Zone: 21 ± 0.30 mm
B. subtilis ATCC 6633 [6]; B. subtilis, Na = no activity
  Mean Diameter of the Inhibition Zone: 31 ± 0.40 mm
S. aureus ATCC 29213 [7]; S. aureus, Na = no activity
  Mean Diameter of the Inhibition Zone: 25 ± 0.31 mm
E. coli ATCC 25922 [8]; E. coli, Na = no activity
  Mean Diameter of the Inhibition Zone: 24 ± 0.20 mm
P. aeruginosa ATCC 27853 [9]; P. aeruginosa, Na = no activity
  Mean Diameter of the Inhibition Zone: 20 ± 0.15 mm
B. subtilis ATCC 6633 [10]; B. subtilis
  MBC: 19.6 ± 0.65 µM (≈ 9.17 µg/mL)
  MIC: 9.61 ± 1.65 µM (≈ 4.5 µg/mL)
B. subtilis ATCC 6633 [10]; Bacillus subtilis, ATCC6633, B. subtilis, read-out: MBC
  MBC: 19.6 µM (≈ 9.17 µg/mL)
B. subtilis ATCC 6633 [10]; Bacillus subtilis, ATCC6633, B. subtilis, read-out: MIC
  MIC: 9.61 µM (≈ 4.5 µg/mL)
[16]
  IC50: 5.44 ± 0.95 µM
[16]; E. coli DHFR IC50
  fold relative to trimethoprim: 0.94 fold
[17]
  Mean Diameter of Inhibition Zone: 24 ± 0.22 mm
E. coli ATCC BAA-196 [18]
  Mean Diameter of Inhibition Zone: 22 ± 0.23 mm
S. aureus ATCC 33591 [19]
  Mean Diameter of Inhibition Zone: 23 ± 0.47 mm
S. aureus ATCC 43300 [20]
  Mean Diameter of Inhibition Zone: 25 ± 0.4 mm
P. aeruginosa ATCC 27853 [11]; P. aeruginosa, read-out: MBC
  MBC: 66.8 ± 0.87 µM (≈ 31.2 µg/mL)
P. aeruginosa ATCC 27853 [11]; P. aeruginosa, read-out: MIC
  MIC: 33.4 ± 0.35 µM (≈ 15.6 µg/mL)
C. albicans (ATCC 10231) [21]
  MFC: 26.69 ± 0.54 µM (≈ 12.5 µg/mL)
  MFC/MIC: <2
  MIC: 16.69 ± 0.75 µM (≈ 7.81 µg/mL)
C. albicans (ATCC 10231) [21]; Candida albicans, ATCC10231, read-out: MFC
  MFC: 26.7 µM (≈ 12.5 µg/mL)
C. albicans (ATCC 10231) [21]; Candida albicans, ATCC10231, read-out: MIC
  MIC: 16.7 µM (≈ 7.81 µg/mL)
[22]
  MBC: 14.23 ± 0.65 µM (≈ 6.66 µg/mL)
  MIC: 9.48 ± 0.54 µM (≈ 4.44 µg/mL)
[22]; Pseudomonas aeruginosa, ATCCBAA2111, read-out: MBC
  MBC: 14.2 µM (≈ 6.66 µg/mL)
[22]; Pseudomonas aeruginosa, ATCCBAA2111, read-out: MIC
  MIC: 9.48 µM (≈ 4.44 µg/mL)
E. coli ATCC BAA-196 [23]; read-out: MBC
  MBC: 33.4 ± 0.84 µM (≈ 15.6 µg/mL)
E. coli ATCC BAA-196 [23]; read-out: MIC
  MIC: 16.7 ± 0.41 µM (≈ 7.81 µg/mL)
S. aureus ATCC 33591 [24]; read-out: MBC
  MBC: 23.7 ± 0.28 µM (≈ 11.1 µg/mL)
S. aureus ATCC 33591 [24]; read-out: MIC
  MIC: 11.8 ± 0.24 µM (≈ 5.54 µg/mL)
S. aureus ATCC 43300 [25]; read-out: MBC
  MBC: 16.3 ± 0.36 µM (≈ 7.61 µg/mL)
S. aureus ATCC 43300 [25]; read-out: MIC
  MIC: 8.33 ± 0.29 µM (≈ 3.9 µg/mL)
E. faecalis ATCC 29212 [12]; E. faecalis
  MBC: 15.83 ± 0.47 µM (≈ 7.41 µg/mL)
  MIC: 8.33 ± 0.36 µM (≈ 3.9 µg/mL)
E. faecalis ATCC 29212 [12]; Enterococcus faecalis, ATCC29212, E. faecalis, read-out: MBC
  MBC: 15.8 µM (≈ 7.41 µg/mL)
E. faecalis ATCC 29212 [12]; Enterococcus faecalis, ATCC29212, E. faecalis, read-out: MIC
  MIC: 8.33 µM (≈ 3.9 µg/mL)
